Laboratory results: patent US9376442B2, “Methylpyrrolopyrimidinecarboxamides” (Takeda GmbH, priority 2009, dated 2016)

Columns and labels:
mice = conditions: bleomycin-induced lung fibrosis model in mice; Cortijo et al. 2009; cited from earlier work
[1] = tested on: patients with pulmonary fibrosis; conditions: Ghofrani 2002, Collard 2007; cited from earlier work
[2] = tested on: bleomycin-induced pulmonary fibrosis and pulmonary hypertension; conditions: Hemnes et al. 2008; cited from earlier work
PDE5A1 = target: T1, PDE5A1 (Homo sapiens, UniProt O76074); assay: Inhibition of type 5 phosphodiesterase (PDE5) activity, modified SPA test with human platelet lysate; type: biochemical; conditions: 0.5 μM cGMP, read-out: PDE5A1 inhibitory values [measured as −log IC50 (mol/l)] (converted)
T1 construct: from tissue; host or cells: human platelets from fresh donor blood (10,000 x g supernatant of sonicated lysate)
Summary of the method: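 Scintillation proximity assay with [3H]cGMP tracer at 0.5 μM total cGMP, stopped after 15 min with beads containing IBMX. PDE3 and PDE2 activities suppressed with motapizone (1 μM) and a PDE2 inhibitor (10 nM). Human platelet supernatant served as the enzyme, with compound preincubated 5 min at 37° C; IC50 values from concentration-effect curves.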

PDE4B1 = target: T2, PDE4B1 (Homo sapiens, UniProt Q07343); assay: Inhibition of type 4 phosphodiesterase (PDE4) activity, modified SPA test with recombinant PDE4B1 expressed in SF21 insect cells; type: biochemical; conditions: recombinant PDE4B1, 0.5 μM cAMP, read-out: PDE4B1 inhibitory values [measured as −log IC50 (mol/l)] (converted)
T2 construct: made in house; host or cells: SF21 insect cells (baculovirus; pCRBac vector), 1000 x g supernatant of homogenate
T2 sequence (Q07343 whole entry): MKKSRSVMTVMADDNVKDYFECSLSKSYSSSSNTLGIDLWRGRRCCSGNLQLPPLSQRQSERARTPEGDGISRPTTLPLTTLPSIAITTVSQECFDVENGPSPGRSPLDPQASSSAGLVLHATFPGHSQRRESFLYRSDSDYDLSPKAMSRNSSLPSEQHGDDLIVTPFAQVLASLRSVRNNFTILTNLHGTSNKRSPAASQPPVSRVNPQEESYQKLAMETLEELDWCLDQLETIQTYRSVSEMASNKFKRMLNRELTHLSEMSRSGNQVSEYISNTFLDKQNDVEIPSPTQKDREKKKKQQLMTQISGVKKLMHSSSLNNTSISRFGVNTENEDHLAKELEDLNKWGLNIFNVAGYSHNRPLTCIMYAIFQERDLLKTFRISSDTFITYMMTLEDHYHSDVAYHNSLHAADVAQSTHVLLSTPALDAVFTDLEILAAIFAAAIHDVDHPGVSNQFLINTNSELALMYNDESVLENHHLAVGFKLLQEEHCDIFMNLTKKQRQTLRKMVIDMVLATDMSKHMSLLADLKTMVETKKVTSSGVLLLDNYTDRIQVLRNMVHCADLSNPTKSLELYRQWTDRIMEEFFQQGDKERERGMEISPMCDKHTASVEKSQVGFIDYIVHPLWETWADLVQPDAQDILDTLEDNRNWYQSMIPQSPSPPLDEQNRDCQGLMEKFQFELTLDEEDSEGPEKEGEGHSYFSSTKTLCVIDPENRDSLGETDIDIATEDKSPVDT
Summary of the method: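 Modified [3H]cAMP SPA using 1000×g supernatant of SF21 cells expressing recombinant human PDE4B1, in 20 mM Tris pH 7.4, 0.1 mg/ml BSA, 5 mM Mg2+, 0.5 μM cAMP. After 5 min preincubation at 37 °C, 15 min reaction, stopped with SPA beads plus IBMX; IC50 by non-linear regression.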

IC50 (PDE5A1) [nM]	IC50 (PDE4B1) [nM]	SMILES	further results
< 1	< 100	CCC(=O)N[C@H]1CC[C@H](NC(=O)c2c(C)[nH]c3c(-c4cc(C(F)F)ccc4OCC4CC4)ncnc23)C1 [Example P90, 4-[2-(Cyclopropylmethoxy)-5-(difluoromethyl)phenyl]-6-methyl-N-[(1S,3S)-3-(propanoylamino)cyclopentyl]-5H-pyrrolo[3,2-d]pyrimidine-7-carboxamide]	–
< 1	< 100	CC(=O)N[C@H]1CC[C@H](NC(=O)c2c(C)[nH]c3c(-c4cc(C(F)F)ccc4OCC4CC4)ncnc23)[C@H](F)C1 (relative stereo) [Example P169, N-[(1S*,2R*,4S*)-4-(Acetylamino)-2-fluorocyclohexyl]-4-[2-(cyclopropylmethoxy)-5-(difluoromethyl)phenyl]-6-methyl-5H-pyrrolo[3,2-d]pyrimidine-7-carboxamide]	–
< 1	< 100	Cc1[nH]c2c(-c3cc(C(F)(F)F)ccc3OCC3CC3)ncnc2c1C(=O)NC1CCN(C(=O)CO)CC1 [Example F57, 4-[2-(Cyclopropylmethoxy)-5-(trifluoromethyl)phenyl]-N-[1-(hydroxyacetyl)piperidin-4-yl]-6-methyl-5H-pyrrolo[3,2-d]pyrimidine-7-carboxamide]	–
< 1	< 100	Cc1[nH]c2c(-c3cc(C(F)(F)F)ccc3OCC3CC3)ncnc2c1C(=O)N[C@H]1CC[C@H](NC(=O)CO)CC1 [Example F59, 4-[2-(Cyclopropylmethoxy)-5-(trifluoromethyl)phenyl]-N-{trans-4-[(hydroxyacetyl)amino]cyclohexyl}-6-methyl-5H-pyrrolo[3,2-d]pyrimidine-7-carboxamide]	–
< 1	< 100	CCC(=O)N1CCC(NC(=O)c2c(C)[nH]c3c(-c4cc(C(F)F)ccc4OCC4CC4)ncnc23)CC1 [Example P2, 4-[2-(Cyclopropylmethoxy)-5-(difluoromethyl)phenyl]-6-methyl-N-(1-propanoylpiperidin-4-yl)-5H-pyrrolo[3,2-d]pyrimidine-7-carboxamide]	–
1 to 10	100 to 1000	Cc1[nH]c2c(-c3cc(F)ccc3OCC3CC3)ncnc2c1C(=O)NC1CCN(C(=O)CO)CC1 [Example F23, 4-(2-Cyclopropylmethoxy-5-fluoro-phenyl)-6-methyl-5H-pyrrolo[3,2-d]pyrimidine-7-carboxylic acid [1-(2-hydroxy-acetyl)-piperidin-4-yl]-amide]	–
< 1	< 100	CCC(=O)N[C@H]1CC[C@H](NC(=O)c2c(C)[nH]c3c(-c4cc(C(F)F)ccc4OCC4CC4)ncnc23)CC1 [Example P7, 4-[2-(Cyclopropylmethoxy)-5-(difluoromethyl)phenyl]-6-methyl-N-[trans-4-(propanoylamino)cyclohexyl]-5^H-pyrrolo[3,2-d]pyrimidine-7-carboxamide]	–
< 1	< 100	CC(=O)N[C@H]1CC[C@H](NC(=O)c2c(C)[nH]c3c(-c4cc(C(F)F)ccc4OCC4CC4)ncnc23)CC1 [Example P6, N-[trans-4-(Acetylamino)cyclohexyl]-4-[2-(cyclopropylmethoxy)-5-(difluoromethyl)phenyl]-6-methyl-5H-pyrrolo[3,2-d]pyrimidine-7-carboxamide]	–

Second part, the compound before the results:

SMILES	IC50 (PDE5A1) [nM]	IC50 (PDE4B1) [nM]	further results
O=C(Nc1c(Cl)cncc1Cl)c1ccc(OC(F)F)c(OCC2CC2)c1 [roflumilast]	–	–	fibrosis development (mice): inhibit fibrosis development
CCCc1nn(C)c2c(=O)[nH]c(-c3cc(S(=O)(=O)N4CCN(C)CC4)ccc3OCC)nc12 [sildenafil]	–	–	exercise tolerance [1]: increases exercise tolerance; lung hemodynamic (vascular resistance and ventilation/perfusion matching) [1]: improves lung hemodynamic; bleomycin-induced pulmonary fibrosis and pulmonary hypertension [2]: attenuates bleomycin-induced pulmonary fibrosis and pulmonary hypertension
CCC(=O)N[C@H]1CC[C@H](NC(=O)c2c(C)[nH]c3c(-c4cc(C)ccc4OCC4CC4)ncnc23)CC1 [Example E85, 4-[2-(Cyclopropylmethoxy)-5-methylphenyl]-6-methyl-N-[trans-4-(propanoylamino)cyclohexyl]-5H-pyrrolo[3,2-d]pyrimidine-7-carboxamide]	< 1	< 100	–
CC(=O)N1CCC(NC(=O)c2c(C)[nH]c3c(-c4cc(C(C)C)ccc4OCC4CC4)ncnc23)CC1 [Example E157, N-(1-Acetylpiperidin-4-yl)-4-[2-(cyclopropylmethoxy)-5-(propan-2-yl)phenyl]-6-methyl-5H-pyrrolo[3,2-d]pyrimidine-7-carboxamide]	< 1	100 to 1000	–
CCc1ccc(OCC2CC2)c(-c2ncnc3c(C(=O)N[C@@H]4CN(C(C)=O)C[C@H]4O)c(C)[nH]c23)c1 (relative stereo) [Example E154, N-[(3R*,4R*)-1-Acetyl-4-hydroxypyrrolidin-3-yl]-4-[2-(cyclopropylmethoxy)-5-ethylphenyl]-6-methyl-5H-pyrrolo[3,2-d]pyrimidine-7-carboxamide]	1 to 10	100 to 1000	–
COCC(=O)N[C@H]1CC[C@H](NC(=O)c2c(C)[nH]c3c(-c4cc(C(F)(F)F)ccc4OCC4CC4)ncnc23)CC1 [Example E95, 4-[2-(Cyclopropylmethoxy)-5-(trifluoromethyl)phenyl]-N-{trans-4-[(methoxyacetyl)amino]cyclohexyl}-6-methyl-5H-pyrrolo[3,2-d]pyrimidine-7-carboxamide]	< 1	< 100	–
CCC(=O)N1C[C@@H](O)[C@H](NC(=O)c2c(C)[nH]c3c(-c4cc(CC)ccc4OCC4CC4)ncnc23)C1 (relative stereo) [Example E155, 4-[2-(Cyclopropylmethoxy)-5-ethylphenyl]-N-[(3R*,4R*)-4-hydroxy-1-propanoylpyrrolidin-3-yl]-6-methyl-5H-pyrrolo[3,2-d]pyrimidine-7-carboxamide]	< 1	100 to 1000	–
CCC(=O)N[C@H]1CC[C@@H](NC(=O)c2c(C)[nH]c3c(-c4cc(CC)ccc4OCC4CC4)ncnc23)CC1 [Example E152, 4-[2-(Cyclopropylmethoxy)-5-ethylphenyl]-6-methyl-N-[cis-4-(propanoylamino)cyclohexyl]-5H-pyrrolo[3,2-d]pyrimidine-7-carboxamide]	< 1	100 to 1000	–
CC(=O)N[C@H]1CC[C@H](NC(=O)c2c(C)[nH]c3c(-c4cc(C(F)(F)F)ccc4OCC4CC4)ncnc23)CC1 [Example E93, N-[trans-4-(acetylamino)cyclohexyl]-4-[2-(cyclopropylmethoxy)-5-(trifluoromethyl)phenyl]-6-methyl-5H-pyrrolo[3,2-d]pyrimidine-7-carboxamide]	< 1	< 100	–
COCC(=O)N[C@H]1CC[C@H](NC(=O)c2c(C)[nH]c3c(-c4cc(F)ccc4OCC4CC4)ncnc23)CC1 [Example E43, 4-[2-(Cyclopropylmethoxy)-5-fluorophenyl]-N-{trans-4-[(methoxyacetyl)amino]cyclohexyl}-6-methyl-5H-pyrrolo[3,2-d]pyrimidine-7-carboxamide]	< 1	< 100	–
